# Reference: PubChem BioAssay AID1985 (Southern Research Specialized Biocontainment Screening …, 2009)
# Tested on: S. Typhi PhoP-promoter GFP reporter, fluorescence, 4 h
# Test: modified counter assay using GFP fluorescence, PhoP regulon inhibitor project, dose response (AID 1985)
row,SMILES,IC50 [µM]
1,C#CCOCCOCCOCCNc1nc(N2CCN(C(=O)CCCCCCCCCCNC(=O)[C@H](CCCCN)n3cc(C[C@@H](C)CC)nn3)CC2)nc(N2CCN(C(=O)CCCCCCCCCCNC(=O)[C@@H]([C@H](C)O)n3cc(C)nn3)CC2)n1,138
2,COc1cc(C)c(Cc2cnc(N)nc2N)cc1OC,2.4
3,O=C(C[n+]1cc(-c2ccccc2)n2c1CCC2)Nc1nc(-c2ccc(F)cc2)cs1,141
4,O=C(Nc1nnc(C(F)(F)F)s1)c1ccc(Br)s1,66.8
5,Cc1cccc2sc(N(CCCN(C)C)C(=O)COc3ccc(Cl)cc3)nc12,79
6,CCCCCC(CC(=O)NO)C(=O)NC(C(=O)N1CCCC1CO)C(C)C (stereo not given),13.7
7,Clc1ccc(OCCCN2CCCC2)cc1Cl,48.4
8,COc1cccc(F)c1C(C[N+](=O)[O-])c1c(N)n(C)c(=O)n(C)c1=O (stereo not given),142
9,CCN(CC)c1ccc(CNc2nc3ccccc3n2C)cc1,97.3
10,NC1=NC[C@H](Cc2ccc(O)cc2)N1CCC12CC3CC(CC(C3)C1)C2,95
11,NC(N)=N/N=C/c1ccc(OCc2ccc(Cl)cc2)cc1,36.3
12,O=Cc1c(Cl)nc2ccccn2c1=O,132
13,Cc1cc(NS(=O)(=O)c2ccc(NC(=O)Nc3cccc(Cl)c3)cc2)no1,137
14,CN(C)C1C(=O)C(C(N)=O)=C(O)C2(O)C(=O)C3=C(O)c4c(O)cccc4C(C)(O)C3C(O)C12 (stereo not given),1.54
15,O=C(CC(=O)c1ccccc1O)c1cccc(F)c1,37.9
16,CCN1CCN(C2=C(NS(=O)(=O)c3ccc(Br)cc3)C(=O)c3ccccc3C2=O)CC1,47.4
17,O=C1c2ccccc2C2=Nc3ccccc3SC(c3ccccc3F)C12 (stereo not given),21
18,O=C(Nc1cccc(Br)c1)c1cc2ccccc2o1,47.4
19,CCCCc1c(O)nc(SCC(=O)Nc2ccc3c(c2)CCC3)[nH]c1=O,30.6
20,CCCCCCC[N+](CC)(CC)CCCCc1ccc(Cl)cc1,80
21,CO[C@H]1C=CO[C@@]2(C)Oc3c(C)c(O)c4c(O)c(c(C=NN5CCN(C)CC5)c(O)c4c3C2=O)NC(=O)C(C)=CC=C[C@H](C)[C@H](O)[C@@H](C)[C@@H](O)[C@@H](C)[C@H](OC(C)=O)[C@@H]1C,23.8
22,CNCCCCOc1ccc(C(C)(C)C)cc1Cl,61
23,NC1=NC[C@@H](Cc2ccc(O)cc2)N1CCCCC1CCCCC1,32.5
24,CCC(C)NC(=O)c1cn(CC)c2cc(N3CCN(C)CC3)c(F)cc2c1=O (stereo not given),38.4
25,CCCCOc1ccc(Br)cc1CSC(=N)N,56.5
26,O=C(Nc1cccnc1)c1cc(Br)c(Br)s1,134
27,COc1ccc(OCC(O)CNc2ccc(Br)cc2)cc1 (stereo not given),3.55
28,O=C(Nc1c(Cl)ccc2nsnc12)c1ccc([N+](=O)[O-])o1,56.7

row,SMILES,IC50 [µM]
1,CCCCOCCCNc1ncnc2c1[nH]c1ccccc12,72.8
2,CCCCCCCCCCOC(=O)Cn1c(COc2ccc(Cl)cc2)[n+](C)c2ccccc21,15.7
3,CCN(CC)CCNc1nc(-c2ccc(OC)cc2)c(-c2ccc(OC)cc2)s1,< 0.23
4,CN1CCN(C(c2ccc(Cl)cc2)c2cc(Cl)c3cccnc3c2O)CC1 (stereo not given),31.8
5,CCCCCCCCCCCCCCCC[N+](C)(C)C,19.3
6,CCOc1ccc(-c2cc(C)[n+](CCN(CC)CC)c(-c3ccc(OCC)cc3)c2)cc1,105
7,Cc1ccc(C(=O)NCCN2C3=NC[C@@H](Cc4ccccc4)N3C[C@H]2Cc2ccc(O)cc2)cc1Br,121
8,O=[N+]([O-])c1cc(CN2CCN(c3cccc(C(F)(F)F)c3)CC2)c2cccnc2c1O,34.6
9,NC(=O)SCC(=O)Nc1cccc(Cl)c1,29.9
10,O=C(Cn1nc(C(F)F)cc1C(F)F)NNC(=S)Nc1ccc([N+](=O)[O-])cc1,64.2
11,C#CCOCCOCCOCCNc1nc(N2CCN(C(=O)CCCCCCCCCCNC(=O)[C@@H](CCSC)n3cc(CCO)nn3)CC2)nc(N2CCN(C(=O)CCCCCCCCCCNC(=O)[C@H]([C@@H](C)CC)n3cc(CCCCCN)nn3)CC2)n1,110
12,CCCCCCCCCCOC(=O)C[N+](C)(C)CC1CCCCC1O (stereo not given),65
13,CCN(CCC(=O)Nc1ccc(Br)c(C)c1)Cc1ccccc1,79.8
14,O=C(/C=C/c1ccco1)NC(=S)NNC(=O)c1ccco1,111
15,CN(Cc1ccccc1)CC(O)COc1ccc(CNCc2ccc(Cl)s2)cc1 (stereo not given),39.1
16,Clc1cccc(CN2CCc3c([nH]c4ccccc34)C2)c1Cl,104
17,CCCOc1ccc(C(=O)NNC(=S)NC(C)=O)cc1,52.3
18,CN(C)c1ccc(O)c2c1CC1CC3C(N(C)C)C(=O)C(C(N)=O)=C(O)[C@@]3(O)C(=O)C1=C2O (stereo not given in full),3.21
19,CCn1cc(C(=O)O)c(=O)c2cc(F)c(N3CCN(C(=S)NC(=O)c4ccc(Br)cc4)CC3)cc21,31.2
20,N#C/C(=N\Nc1ccc([N+](=O)[O-])cc1)C(N)=S,110
21,Cc1ccc(NC(=O)CS(=O)CC(=O)Nc2ccccc2-c2ccc(C)o2)cc1 (stereo not given),66.8
22,C=CCn1c(NS(=O)(=O)c2ccccc2)c(S(=O)(=O)c2ccc(C)cc2)c2nc3ccccc3nc21,135
23,Cc1ccc(C(=O)NNC(=S)NC(=O)COc2ccccc2)cc1,47.5
24,O=C(Nc1ccc2nc(-c3ccc(Br)o3)[nH]c2c1)c1ccco1,130
25,O=C(Nc1cccc(C2=NCCN2)c1)Nc1cccc(C2=NCCN2)c1,36.2
26,CC(=O)OC1=C(O)C(=O)c2ccccc2C1=O,78.6
27,NC1=NC[C@H](c2ccccc2)N1CCCCC1CCCCC1,38.5
